These results are taken from patent US20180194762A1 (Pharmacyclics LLC, priority 2017, published 2018).

Broadly, the IC50 is the concentration needed to halve the response being measured.

Format in all cases: biochemical
The target in one test is T1, TEC (Homo sapiens, UniProt P42680).
T1 sequence (P42680 1-631): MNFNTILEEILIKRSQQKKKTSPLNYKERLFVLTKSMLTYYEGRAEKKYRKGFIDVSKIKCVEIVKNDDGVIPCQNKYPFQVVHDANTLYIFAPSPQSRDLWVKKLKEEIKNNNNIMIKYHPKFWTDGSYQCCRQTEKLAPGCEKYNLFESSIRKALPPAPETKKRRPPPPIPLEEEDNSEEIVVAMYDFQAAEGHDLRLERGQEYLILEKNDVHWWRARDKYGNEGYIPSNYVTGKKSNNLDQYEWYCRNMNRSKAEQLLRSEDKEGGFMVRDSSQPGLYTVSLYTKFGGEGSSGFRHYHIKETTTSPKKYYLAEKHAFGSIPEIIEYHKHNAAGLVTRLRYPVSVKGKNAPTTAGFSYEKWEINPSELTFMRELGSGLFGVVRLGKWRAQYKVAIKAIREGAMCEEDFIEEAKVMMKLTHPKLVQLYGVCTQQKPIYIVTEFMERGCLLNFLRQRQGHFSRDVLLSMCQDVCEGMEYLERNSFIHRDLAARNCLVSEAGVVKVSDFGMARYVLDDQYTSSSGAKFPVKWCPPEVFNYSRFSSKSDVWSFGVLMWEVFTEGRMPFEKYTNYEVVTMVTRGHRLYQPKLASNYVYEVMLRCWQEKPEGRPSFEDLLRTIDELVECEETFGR
Put plainly: Inhibition of a panel of kinases (in vitro HotSpot kinase assay, 33P-ATP, 1 μM ATP). The essentials: (§1)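 Radiometric read-out: 33P transfer to a suitable substrate by each purified enzyme, ATP at 1 μM. Values are degree of inhibition.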

A further test has as its target T2, panel of kinases (Homo sapiens, UniProt P51813).
T2 sequence (P51813 1-675): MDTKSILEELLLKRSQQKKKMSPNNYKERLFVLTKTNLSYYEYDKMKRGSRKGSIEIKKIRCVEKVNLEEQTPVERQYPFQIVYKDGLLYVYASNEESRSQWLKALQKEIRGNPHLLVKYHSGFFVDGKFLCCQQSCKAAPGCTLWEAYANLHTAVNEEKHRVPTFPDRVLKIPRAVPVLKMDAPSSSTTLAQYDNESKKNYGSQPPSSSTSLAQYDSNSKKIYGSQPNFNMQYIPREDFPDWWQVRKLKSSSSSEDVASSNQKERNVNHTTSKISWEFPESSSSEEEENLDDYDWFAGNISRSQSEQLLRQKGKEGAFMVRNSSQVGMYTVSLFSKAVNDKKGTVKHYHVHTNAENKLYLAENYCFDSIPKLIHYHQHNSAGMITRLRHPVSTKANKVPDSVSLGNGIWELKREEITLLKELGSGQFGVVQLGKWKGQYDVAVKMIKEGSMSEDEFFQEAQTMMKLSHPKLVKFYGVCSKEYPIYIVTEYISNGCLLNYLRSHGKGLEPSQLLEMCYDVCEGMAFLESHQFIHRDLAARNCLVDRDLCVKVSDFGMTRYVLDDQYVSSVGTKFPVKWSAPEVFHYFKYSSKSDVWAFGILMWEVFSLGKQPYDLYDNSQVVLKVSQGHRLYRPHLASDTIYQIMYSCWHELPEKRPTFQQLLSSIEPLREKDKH
Put plainly: Inhibition of a panel of kinases (in vitro HotSpot kinase assay, 33P-ATP, 1 μM ATP), other kinases. Particulars: BMX wild-type, read-out: BMX-WT IC50. The essentials:
as §1

A further test addresses T3, Btk (Homo sapiens, UniProt Q06187).
T3 construct: purified from insect cells as a full-length construct containing a N-terminal 6X-His tag; His6 (N); made in house; host or cells: insect cells (Method C)
Put plainly: Btk in vitro inhibitory activity (one of Method A TR-FRET, Method B electrophoretic mobility shift, Method C radiometric filter binding). To be noted: wild-type Btk; read-out: Btk-WT IC50. The essentials:
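Three alternative formats were used. A radiometric filter-binding read used 8 nM full-length His-BTK with 0.2 mg/mL poly(Glu-Tyr) 4:1 (C); microfluidic separation of 1 μM FAM-peptide by 1 nM BTK gave IC50 from 12-point curves (B); TR-FRET at Km ATP, 0.5 nM Btk, gave Ki(app)-derived IC50 (A).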
(Mobility shift assays separate free from complexed probe on a gel.)

T3 sequence (Q06187 whole entry): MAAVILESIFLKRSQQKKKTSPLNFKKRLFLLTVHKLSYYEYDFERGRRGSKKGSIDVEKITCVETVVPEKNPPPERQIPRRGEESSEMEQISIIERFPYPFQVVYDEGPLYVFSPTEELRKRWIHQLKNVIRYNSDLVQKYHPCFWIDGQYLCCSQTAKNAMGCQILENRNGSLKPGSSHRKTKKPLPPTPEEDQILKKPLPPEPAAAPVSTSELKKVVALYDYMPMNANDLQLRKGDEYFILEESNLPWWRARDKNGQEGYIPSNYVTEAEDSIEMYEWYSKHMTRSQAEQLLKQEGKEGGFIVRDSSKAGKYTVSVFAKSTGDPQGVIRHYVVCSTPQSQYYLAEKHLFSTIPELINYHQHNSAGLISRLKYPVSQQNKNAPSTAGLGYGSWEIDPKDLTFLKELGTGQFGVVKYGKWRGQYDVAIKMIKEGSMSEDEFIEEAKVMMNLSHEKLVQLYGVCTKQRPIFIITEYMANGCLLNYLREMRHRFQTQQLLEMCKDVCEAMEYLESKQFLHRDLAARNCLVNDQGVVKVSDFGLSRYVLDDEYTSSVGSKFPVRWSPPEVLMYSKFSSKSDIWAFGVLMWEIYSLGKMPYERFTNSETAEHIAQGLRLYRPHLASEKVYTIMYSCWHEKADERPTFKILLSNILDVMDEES

Take `CC(C)(C)c1cc(C(=O)NCc2ccc(-c3ccnc4[nH]nc(N[C@@H]5CCNC5)c34)cc2F)no1` [Example 63, 5-tert-butyl-N-{[2-fluoro-4-(3-{[(3R)-pyrrolidin-3-yl]amino}-1H-pyrazolo[3,4-b]pyridin-4-yl)phenyl]methyl}-1,2-oxazole-3-carboxamide]: the IC50 is 7.86 µM on TEC (HotSpot kinase assay, 1 μM ATP); more than 10 µM on panel of kinases; 0.0102 µM at Btk. Besides, the TEC/Btk on TEC (ratio of TEC IC50 to Btk IC50 (selectivity)) worked out at 771.
